The target of series [1] is T1, microsomal leucine aminopeptidase (EC 3.4.11.2; PLA) (Sus scrofa, UniProt P15145).
T1 construct: The microsomal leucine aminopeptidase (EC 3.4.11.2) of pig kidney was purchased from Sigma; purchased Sigma 069K7356; host or cells: pig kidney (tissue-derived enzyme)
T1 sequence (P15145 1-963): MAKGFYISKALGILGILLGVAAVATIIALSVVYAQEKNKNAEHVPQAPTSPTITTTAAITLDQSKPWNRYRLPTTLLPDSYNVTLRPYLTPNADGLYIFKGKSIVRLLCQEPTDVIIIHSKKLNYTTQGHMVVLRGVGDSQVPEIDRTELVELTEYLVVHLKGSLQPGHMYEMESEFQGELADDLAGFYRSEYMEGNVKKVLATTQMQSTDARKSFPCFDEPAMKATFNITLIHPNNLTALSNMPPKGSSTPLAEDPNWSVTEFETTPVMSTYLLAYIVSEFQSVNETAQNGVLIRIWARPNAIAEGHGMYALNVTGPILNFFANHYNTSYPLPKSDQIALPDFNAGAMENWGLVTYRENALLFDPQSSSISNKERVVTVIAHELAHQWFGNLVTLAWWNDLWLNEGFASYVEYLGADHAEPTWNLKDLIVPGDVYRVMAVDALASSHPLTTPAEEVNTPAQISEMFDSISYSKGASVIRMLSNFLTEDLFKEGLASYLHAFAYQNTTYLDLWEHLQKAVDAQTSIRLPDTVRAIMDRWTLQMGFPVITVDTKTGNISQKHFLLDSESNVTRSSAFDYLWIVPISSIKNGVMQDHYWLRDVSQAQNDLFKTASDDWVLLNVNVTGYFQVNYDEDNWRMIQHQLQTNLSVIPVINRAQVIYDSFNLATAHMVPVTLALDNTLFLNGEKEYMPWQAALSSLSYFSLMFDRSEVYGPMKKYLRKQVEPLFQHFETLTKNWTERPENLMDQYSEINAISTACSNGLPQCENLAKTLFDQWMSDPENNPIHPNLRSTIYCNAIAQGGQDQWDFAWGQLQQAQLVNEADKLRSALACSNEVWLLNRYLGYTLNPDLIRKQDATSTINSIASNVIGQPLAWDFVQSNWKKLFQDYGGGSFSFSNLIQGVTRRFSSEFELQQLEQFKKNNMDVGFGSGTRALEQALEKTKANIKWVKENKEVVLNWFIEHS
The series can be described thus: Enzymatic test: fluorescence of probes incubated with microsomal leucine aminopeptidase (PLA) in multi-well plates. The class given is biochemical, pig. As to conditions: for Delay for obtaining an intense increase in the signal: different probe concentrations, FIG. 5, generally less than 100 minutes. As for the experimental part: Preamble: Within the scope of the invention, upon applying the enzymatic tests, once the minimum, concentration allowing triggering of crystal nucleation is reached, a solid fluorophore may first be deposited on the walls of the receptacle (a well in a multi-well plate), before beginning to deposit on the bottom of the receptacle. The delay associated with the triggering of nucleation (≧10 mins) is well seen on the kinetic curves in the figures shown. The enzymatic tests carried out are illustrated with the appended figures.
(§1) The probes I.1 and I.2 were evaluated by incubation with the target enzyme, microsomal leucine aminopeptidase (EC 3.4.11.2; “PLA”; commercial) in an in vitro medium in multi-well micro-plates designed for fluorescence readers.
The main tests were conducted at 25° C., in solutions buffered to pH 7.4 (physiological pH). […] A temperature of 25° C. was therefore preferred.
(§2) All the final solutions for the enzymatic tests were buffered to a pH varying from 7.4 to 7.6 (depending on the room temperature) with a 25 mM (total concentration) of Tris/Tris.HCl buffer, containing 11 mM of NaCl. The microsomal leucine aminopeptidase (EC 3.4.11.2) of pig kidney was purchased from Sigma (catalogue no. 069K7356) in the form of a suspension in ammonium sulfate (3.5 M) containing MgCl2 (10 mM), with 3.5 mg·mL^−1 of protein contents and 10-40 U/mg of protein, as determined for the standard substrate, leucyl p-nitroanilide, and was stored in a fridge at 4° C. for a maximum of 40 days before its use. […] Analyses Carried Out:
(§3) The analyses were carried out with reading of the fluorescence values, measured in RFU, versus time. The analyses were conducted in black polypropylene plates with 96 (Corning, Corning Inc.) or with 384 (Nunclon, Nunc Inc.) wells, and recorded on a microplate fluorimeter (Mithras LB940 from Berthold Technologies). This fluorimeter was used in a so-called repeated mode, where the fluorescence was measured with a reading, here selected to be 3 seconds per well, the excitation beam with a diameter of 4 mm being centered in the well. […] It should be noted that this mode of use is close to the operation of optical high throughput screening by fluorescence, which is one of the applications envisioned for these types of probes. […] In the scanning mode, the wells were divided into a square read-out grid, typically covering the well with a resolution of 8×8 to 15×15 pixels, each of the pixels being read between 0.1 and 0.3 s. This scanning mode partly removes the errors and the read-out noise of the total fluorescence of the well subject to the repeated mode, subsequently to the tendency of the fluorophore once it is released of depositing a first phase on the walls. The scanning mode as implemented here is also slower and less suitable for qualitatively following reaction kinetics. It should be noted that this mode of use is close to the operation of cell counting, which is a second application envisioned for these types of probes.
The excitation wavelength for the probes I.1 and I.2 (based on HPQ) was set to 355 nm, and the localized emission wavelength was set to 510 nm, since the fluorimeter used has filters of the bandpass type for selecting these wavelengths with a bandwidth of 14 nm for the excitation beam and of 10 nm for the emission one.
The enzyme was added last to the prepared wells. After adding the enzyme, the contents of the well were sucked up and released twice with a pipette, in order to homogenize as much as possible the mixture. […] The addition of the enzyme well by well was accomplished by observing the reading delay between the wells, so that the reaction times of each well were the same for each readout of the plate in order to allow comparison of the acquired data for different wells (in these experiments, there was a delay between 3 seconds and 20 seconds, between the readout of the neighboring wells, to be multiplied by up to 77 wells read by acquisition at a time t). […]

Series [2] can be described thus: Stability controls: fluorescence of probes in buffered aqueous solution without PLA enzyme (spontaneous hydrolysis, falsely positive signal). In kind it is physicochemical. As to conditions: for Signal increase relative to noise in the absence of enzyme (stability to spontaneous hydrolysis): 100 μM, 660 minutes, buffered pH ~7.6, no PLA, FIG. 4. On the procedure:
as §1, §2, §3
A series of control measurements of background fluorescence was carried out, with wells containing some enzyme in the standard buffer without any probe. A last series of measurements was conducted by using a solution of probe I.1 prepared three weeks beforehand (“3 wks”), in order to obtain another estimation of the robustness of this probe towards spontaneous hydrolysis in practice. Each readout lasted for 3 seconds per well. […]

Series [3] is described as follows: Solubility in water / aqueous media (observation). As to conditions: solid tosylate; dissolves easily in MeOH then dilutable with water.
Setting [4] is: actual 10 μM, plateau not reached, underestimated.
Where [5] appears, read: actual 18 μM, plateau not reached, underestimated.

As for `CC(C)C[C@H](N)C(=O)NCC1CCCCN1C(=O)Oc1ccccc1-c1nc2ccccc2c(=O)[nH]1` (some centres unmarked) [I.1], the “Predicted Conc. (initial probe concentration estimated from the average ratio)” value in series [1] (setting [4]) is 0 µM; in series [1] (setting [5]), 6 µM; in series [1] (actual 32 μM) it was 26 µM; in series [1] (actual 59 μM) it was 42 µM; in series [1] (actual 100 μM), 108 µM; in series [1] (actual 378 μM, 3 wks stored solution), 419 µM. Further, the “Signal/Conc. (signal plateau/concentration ratio)” value in series [1] (probe 32 μM, with PLA) is 72794 RFU μM^−1; in series [1] (probe 59 μM, with PLA), 63054 RFU μM^−1; in series [1] (probe 100 μM, with PLA), 95711 RFU μM^−1; in series [1] (probe 378 μM, 3 wks stored solution, with PLA), 98684 RFU μM^−1. The “Photo-degradation: signals once the plateau is reached, under irradiation of the fluorescence reader” value in series [1] (with PLA, 11 h acquisition, FIG. 6) is “do not decrease over time”. Besides, the “Delay for obtaining an intense increase in the signal” value in series [1] (with PLA) was “about 10 minutes”. The “Signal increase relative to noise in the absence of enzyme (stability to spontaneous hydrolysis)” value in series [2] is listed as “NO signal increase”. Besides, in series [2] (probe 209 μM and 80 μM without enzyme, 40 hours of incubation, FIG. 1), the “Falsely positive signal due to spontaneous hydrolysis of the probe” value is “absence of any falsely positive signal due to spontaneous hydrolysis of the probe”. In addition, the Solubility in water entry in series [3] is reported as “not very soluble in water”.
As to `CC(C)C[C@H](N)C(=O)NCC(C)(C)N(C)C(=O)Oc1ccccc1-c1nc2ccccc2c(=O)[nH]1` [I.2], the “Predicted Conc. (initial probe concentration estimated from the average ratio)” value in series [1] (setting [4]) was 1 µM; in series [1] (setting [5]), 6 µM; in series [1] (actual 32 μM) it was 40 µM; in series [1] (actual 59 μM) it was 63 µM; in series [1] (actual 100 μM), 98 µM. Also, the “Signal/Conc. (signal plateau/concentration ratio)” value amounted to 110289 RFU μM^−1 in series [1] (probe 32 μM, with PLA); 95096 RFU μM^−1 in series [1] (probe 59 μM, with PLA); 87269 RFU μM^−1 in series [1] (probe 100 μM, with PLA). The “Delay for obtaining an intense increase in the signal” value in series [1] (with PLA) is on record as “about 10 minutes”. Besides, in series [2], the “Signal increase relative to noise in the absence of enzyme (stability to spontaneous hydrolysis)” value is listed as “NO signal increase”. In addition, the “Degradation in the absence of enzyme” value in series [2] (probe 100 μM without enzyme, FIG. 3) was “does not degrade in the absence of enzyme”.
